Data as given in US20030087316A1, “Diagnostic markers of liver dysfunction” (priority 2001, published 2003).
“Also recorded” adds a separate entry of the source.

How the values were obtained:
C1s = target: T1, C1s (Homo sapiens, UniProt P09871); test: Peptidase (amidolytic) activity of purified C1s, chromogenic substrate, 96-well plate, OD 405 nm; assay type: biochemical; conditions: for % Residual activity, C1s: Table 3, C1s 100 nM with ten-fold diluted normal EDTA plasma added, substrate S2288, 60 min at 4° C. with C1INH 40 μg/ml or PPACK 11 10 μM; for Inhibition of C1s, in words: text on Tables 2 and 3, concentrations as there
T1 construct: purchased Advanced Research Technologies (San Diego, Calif.)
T1 sequence (P09871 438-688 limits assumed): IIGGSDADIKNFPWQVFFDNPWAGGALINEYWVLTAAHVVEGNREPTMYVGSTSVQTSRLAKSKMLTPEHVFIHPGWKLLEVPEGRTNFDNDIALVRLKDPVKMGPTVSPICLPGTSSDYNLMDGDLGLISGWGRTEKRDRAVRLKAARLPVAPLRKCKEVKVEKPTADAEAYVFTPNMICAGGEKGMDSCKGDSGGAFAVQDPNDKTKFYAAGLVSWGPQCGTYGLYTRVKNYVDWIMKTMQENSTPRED
T1 sequence (P09871 16-437 partner limits assumed): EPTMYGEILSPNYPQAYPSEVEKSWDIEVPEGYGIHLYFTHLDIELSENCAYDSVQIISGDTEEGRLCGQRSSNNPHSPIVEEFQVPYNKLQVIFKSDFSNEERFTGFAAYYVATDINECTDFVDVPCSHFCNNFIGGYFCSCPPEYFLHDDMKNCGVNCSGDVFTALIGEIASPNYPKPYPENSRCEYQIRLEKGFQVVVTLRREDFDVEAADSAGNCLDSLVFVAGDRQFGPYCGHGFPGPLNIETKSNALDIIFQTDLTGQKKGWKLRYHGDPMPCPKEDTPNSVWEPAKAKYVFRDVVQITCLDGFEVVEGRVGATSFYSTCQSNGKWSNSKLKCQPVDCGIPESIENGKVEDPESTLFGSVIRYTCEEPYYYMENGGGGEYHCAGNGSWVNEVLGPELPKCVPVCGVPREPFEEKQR
Experimental: (§1) The peptidase activity in plasma samples or of the purified enzymes were routinely determined at 37° C. in a 96-well plate. Each well contained 0.5 mM substrate in 100 μl of Tris-buffered saline (TBS)-EDTA buffer (50 mM Tris/150 mM NaCl/10 mM EDTA, pH 7.8) and the reaction was monitored using a microplate reader (Titertek Multiscan, Labsystems, Needham Heights, Mass.).
(§2) The enzymes C1s (100 nM), plasm in (100 nM), thrombin (100 nM), plasma kallikrein (20 nM), β-FXIIa (100 nM), trypsin (16 nM) or LTR EDTA plasma samples were incubated for 60 min at 4° C. with TBS-EDTA buffer containing either LBTI (1 mg/ml), SBTI (I mg/ml), aprotinin (0.075 mg/ml), benzamidine (50 mM), or Futhan (0.1 mg/ml), before mixing with the substrate. EDTA plasma samples from LTR were diluted 10 or 20-fold with TBS-EDTA. The chromogenic substrate AGLTR-pNA was used for all enzymes and LTR samples except C1s where the substrate S2288 was used. Based on the initial rate of increase in OD at 405 nm, the residual free enzyme level was calculated and expressed as a percentage of total activity without inhibitor added.
(§3) Ten-fold diluted normal EDTA plasma was added to each enzyme. The enzymes C1s (100 nM), plasmin (100 nM), thrombin (100 nM), plasma kallikrein (20 nM), β-FXIIa (100 nM), trypsin (16 nM) or LTR EDTA plasma samples were incubated for 60 min at 4° C. with TBS-EDTA buffer containing either C1INH (40 μg/ml), bdellin (50 μg/ml), hirudin (50 U/ml), PPACK 11(10 μM), or CTI (100 μg/ml), before adding the substrate. LTR samples were 10 or 20-fold diluted with TBS-EDTA. The chromogenic substrate AGLTR-pNA was used for all enzymes and LTP samples except C1s where the substrate S2288 was used. Based on the initial rate of increase in OD at 405 nm, the residual free enzyme was calculated and expressed as a percentage of total activity determined without inhibitor added.

plasma kallikrein = target: T2, plasma kallikrein (Homo sapiens, UniProt P03952); test: Peptidase (amidolytic) activity of purified plasma kallikrein, chromogenic substrate, OD 405 nm; assay type: biochemical; conditions: for % Residual activity, Plasma Kallikrein: Table 3, plasma kallikrein 20 nM with ten-fold diluted normal EDTA plasma added, substrate AGLTR-pNA, 60 min at 4° C. with C1INH 40 μg/ml or PPACK 11 10 μM; for Inhibition of purified plasma kallikrein activity, in words: text on Tables 2 and 3, concentrations as there
T2 construct: The light chain of kallikrein contains the enzymatic domain; purchased Calbiochem-Novabiochem Corp (La Jolla, Calif.)
Experimental: as §1
(§4) […] EDTA plasma samples from LTR were diluted 10 or 20-fold with TBS-EDTA. The chromogenic substrate AGLTR-pNA was used for all enzymes and LTR samples except C1s where the substrate S2288 was used. Based on the initial rate of increase in OD at 405 nm, the residual free enzyme level was calculated and expressed as a percentage of total activity without inhibitor added.
(§5) Ten-fold diluted normal EDTA plasma was added to each enzyme. […] LTR samples were 10 or 20-fold diluted with TBS-EDTA. The chromogenic substrate AGLTR-pNA was used for all enzymes and LTP samples except C1s where the substrate S2288 was used. Based on the initial rate of increase in OD at 405 nm, the residual free enzyme was calculated and expressed as a percentage of total activity determined without inhibitor added.

[1] = tested on: proteinase(s) in EDTA plasma from LTR (kallikrein-like peptidase); test: Peptidase activity in EDTA plasma from liver transplant recipients (LTR), chromogenic substrate, OD 405 nm; assay type: biochemical, human; conditions: for % Residual activity, LTR 1 / % Residual activity, LTR 2 / % Residual activity, LTR 3: Table 3, substrate AGLTR-pNA, 60 min at 4° C. with C1INH 40 μg/ml, bdellin 50 μg/ml, hirudin 50 U/ml, PPACK 11 10 μM or CTI 100 μg/ml; for % Residual activity, LTR 1: LTR 1 EDTA plasma 10 or 20-fold diluted; for % Residual activity, LTR 2: LTR 2 EDTA plasma 10 or 20-fold diluted; for % Residual activity, LTR 3: LTR 3 EDTA plasma 10 or 20-fold diluted; for Inhibition of the LTR plasma peptidase activity, in words: text on Tables 2 and 3, concentrations as there
Experimental: Blood samples were drawn into 5 ml EDTA tubes (Venoject; Terumo Corp., Elkton, Md.). The plasma was collected immediately by centrifugation at 2,000×g for 15 min at 4° C. The plasma samples were either processed immediately for analysis or stored at −70° C. Frozen samples were thawed at 4° C. prior to analysis.
as §1, §2, §3

β-Factor XIIa (β-FXIIa) = target: T3, β-Factor XIIa (β-FXIIa) (Homo sapiens, UniProt P00748); test: Peptidase (amidolytic) activity of purified β-FXIIa, chromogenic substrate, OD 405 nm; assay type: biochemical; conditions: Table 3; β-FXIIa 100 nM with ten-fold diluted normal EDTA plasma added, substrate AGLTR-pNA; 60 min at 4° C. with PPACK 11 10 μM or CTI 100 μg/ml
T3 construct: β-Factor XIIa (β-FXIIa) was kindly provided by Dr. Mary J. Heeb; gift of Dr. Mary J. Heeb, The Scripps Research Institute
Experimental: as §1, §4, §5

thrombin = target: T4, thrombin (Homo sapiens, UniProt P00734); test: Peptidase (amidolytic) activity of purified thrombin, chromogenic substrate, OD 405 nm; assay type: biochemical; conditions: Table 3; thrombin 100 nM with ten-fold diluted normal EDTA plasma added, substrate AGLTR-pNA; 60 min at 4° C. with hirudin 50 U/ml or PPACK 11 10 μM
T4 construct: purchased Calbiochem-Novabiochem Corp (La Jolla, Calif.)

plasmin = target: T5, plasmin (Homo sapiens, UniProt P00747); test: Peptidase (amidolytic) activity of purified plasmin, chromogenic substrate, OD 405 nm; assay type: biochemical; conditions: Table 3; plasmin 100 nM with ten-fold diluted normal EDTA plasma added, substrate AGLTR-pNA; 60 min at 4° C. with bdellin 50 μg/ml or PPACK 11 10 μM
T5 construct: purchased Calbiochem-Novabiochem Corp (La Jolla, Calif.)
Experimental: as §1, §2, §3

T2 sequence (P03952 391-638 limits assumed): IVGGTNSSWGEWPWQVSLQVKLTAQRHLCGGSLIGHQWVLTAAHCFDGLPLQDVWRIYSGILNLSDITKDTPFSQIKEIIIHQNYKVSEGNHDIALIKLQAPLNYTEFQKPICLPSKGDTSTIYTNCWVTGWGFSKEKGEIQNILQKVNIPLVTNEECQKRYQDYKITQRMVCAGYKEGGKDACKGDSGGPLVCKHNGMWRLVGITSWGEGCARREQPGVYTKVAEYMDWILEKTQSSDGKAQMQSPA
T2 sequence (P03952 20-390 partner limits assumed): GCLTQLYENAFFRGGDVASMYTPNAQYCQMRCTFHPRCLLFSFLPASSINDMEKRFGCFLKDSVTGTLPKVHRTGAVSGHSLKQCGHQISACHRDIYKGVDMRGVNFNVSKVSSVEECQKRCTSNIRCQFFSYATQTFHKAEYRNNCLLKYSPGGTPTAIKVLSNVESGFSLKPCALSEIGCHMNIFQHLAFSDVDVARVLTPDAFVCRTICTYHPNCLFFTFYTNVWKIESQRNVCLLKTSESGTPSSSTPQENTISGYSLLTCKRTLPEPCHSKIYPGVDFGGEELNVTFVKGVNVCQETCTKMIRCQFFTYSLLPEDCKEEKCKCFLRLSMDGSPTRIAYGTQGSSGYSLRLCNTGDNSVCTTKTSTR
T5 sequence (P00747 581-810 limits assumed, species assumed): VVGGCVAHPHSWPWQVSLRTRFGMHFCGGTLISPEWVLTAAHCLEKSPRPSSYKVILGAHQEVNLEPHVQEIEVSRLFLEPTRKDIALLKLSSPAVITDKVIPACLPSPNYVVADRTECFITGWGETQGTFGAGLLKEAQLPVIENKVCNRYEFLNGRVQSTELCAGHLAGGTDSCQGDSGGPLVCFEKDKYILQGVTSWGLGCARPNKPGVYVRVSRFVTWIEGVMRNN
T5 sequence (P00747 97-580 partner limits assumed, species assumed): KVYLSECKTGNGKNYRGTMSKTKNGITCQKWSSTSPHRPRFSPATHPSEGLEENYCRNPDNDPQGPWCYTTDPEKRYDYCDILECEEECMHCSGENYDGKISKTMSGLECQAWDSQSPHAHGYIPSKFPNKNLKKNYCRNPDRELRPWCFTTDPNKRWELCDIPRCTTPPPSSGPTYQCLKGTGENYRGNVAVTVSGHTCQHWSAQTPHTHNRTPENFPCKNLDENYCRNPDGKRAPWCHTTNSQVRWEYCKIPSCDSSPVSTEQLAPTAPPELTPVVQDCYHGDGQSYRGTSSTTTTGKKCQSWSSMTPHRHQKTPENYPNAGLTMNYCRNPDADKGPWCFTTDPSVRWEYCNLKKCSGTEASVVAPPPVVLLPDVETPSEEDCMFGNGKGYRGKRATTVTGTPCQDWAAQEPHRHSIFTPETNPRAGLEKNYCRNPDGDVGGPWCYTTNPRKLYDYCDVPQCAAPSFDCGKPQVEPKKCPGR
T3 sequence (P00748 373-615 limits assumed, other chains not shown): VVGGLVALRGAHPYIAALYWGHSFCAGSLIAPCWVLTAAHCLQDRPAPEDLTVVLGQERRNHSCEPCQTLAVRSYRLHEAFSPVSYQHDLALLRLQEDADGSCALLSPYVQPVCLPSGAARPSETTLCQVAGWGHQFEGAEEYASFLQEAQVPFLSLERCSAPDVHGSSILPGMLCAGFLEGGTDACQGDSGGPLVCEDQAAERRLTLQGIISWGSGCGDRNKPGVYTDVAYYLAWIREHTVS

Inhibition of the LTR plasma peptidase activity, in words ([1]; listed as CINH)	Substance	% Residual activity, C1s (C1s) [%]	Inhibition of C1s, in words (C1s)	% Residual activity, Plasma Kallikrein (plasma kallikrein) [%]	Inhibition of purified plasma kallikrein activity, in words (plasma kallikrein)	% Residual activity, LTR 1 [1] [%]	% Residual activity, LTR 2 [1] [%]	% Residual activity, LTR 3 [1] [%]	Inhibition of the LTR plasma peptidase activity, in words [1]	% Residual activity, β-FXIIa (β-Factor XIIa (β-FXIIa)) [%]	% Residual activity, Thrombin (thrombin) [%]	% Residual activity, Plasmin (plasmin) [%]
inhibited partially	C1INH: human C1 esterase inhibitor, purchased from Sigma Chemical	37.8	only partially inhibited C1s	37.0	caused only partial inhibition	81.4	84.0	41.0	caused only partial inhibition			
	D-Phe-Phe-Arg-chloromethylketone [PPACK II]	82.2	failed to inhibit C1s	0.0	totally inhibited	−0.2	0.6	2.7	totally inhibited; also recorded: substantially inhibited	8.4	0.7	9.2
